Laboratory results as given in patent US12171852B1, “Composition and methods for regulating melanogenesis” (Sytheon Ltd, priority 2023, dated 2024).

Tests used:
[1] = test system: mushroom tyrosinase; test: In vitro tyrosinase inhibition assay (L-DOPA conversion); type: biochemical; settings: for Tyrosinase enzyme activity (% of Control): 80 min, L-DOPA 5 mM; for Inhibition of tyrosinase activity (in words): particularly at the higher concentrations
Protocol: Louis, MO, catalog #K3125) was employed as the positive control/reference substance. […] [Biosci Biotechnol Biochem, 67:1587-1589, 2003]. […] The final concentration used in the assay was 16 U/well (80 U/ml). Tyrosinase substrate L-DOPA (Acros Organics, Fair Lawn, NJ) was used at 5 mM. Reactions were conducted in a 96 well format and were initiated by adding the enzyme to the reaction mix and allowed to react for 80 min. […] The increase of the melanin output was calculated using the formula: ΔM=[A450 nm(t=80 min.)+Tyrosinase]−[A450 nm(t=80 min.)−Tyrosinase] where ΔM is increase of melanin, A is absorbance for a given experimental condition, t is a time point and 450 nm is the wavelength used for the quantification of melanin and “-Tyrosinase” is the background reading of identical experimental conditions without the enzyme.

[2] = test system: MITF gene expression; test: MITF gene expression validated by real-time quantitative PCR in EpiDermFT tissues; type: cell-based; settings: versus water control
Protocol: As validation of the findings above a second analysis of the tissue samples was performed this time using cDNA prepared using High-Capacity RNA-to-cDNA™ Kit (Thermo Fisher Scientific). Expression of the applicable genes was measured by real-time quantitative PCR with the BioRad iCycler iQ Detection System using PCR primers from Realtimeprimers (Elkins Park, PA) and AzuraView GreenFast qPCR Blue Mix LR (Azura Genomics, Raynham, MA). Efficiency ΔΔCt method was used for quantification of results, after the normalization of gene expression to GAPD (a housekeeping gene).

[3] = test system: B16-F1 melanocytes; test: Melanin synthesis in melanocytes, melanin colorimetric competitive ELISA; type: cell-based; settings: for % Melanin Inhibition: 200 μg/ml, water control = 100; for Melanin-inhibitory activity (in words): colorimetric quantification, ZDBL at 200 μg/ml
[4] = biological target: NADPH Oxidase 4 (NOX-4) (Homo sapiens (Human), UniProt Q9NPH5); test: NADPH oxidase (NOX-4) inhibitory activity, NOX4 ELISA kit; type: biochemical
Protocol: A study was conducted on the direct impact of Zn di-(di-n-butyryl lysinate) (ZDBL), Ca di-(di-n-butyryl lysinate), and Na butyrate on NADPH Oxidase 4 (NOX-4) enzyme. In this study, 0.01 gram of sample was dissolved in 1 ml propanediol to make solution. For the analysis, a 1 to 2 serial dilution of the stock solution of the sample using buffer was made to determine the IC50 values. The analysis was done following NOX4 ELISA kit (My BioSource, Catalog #MBS2505108) protocol.

[5] = test system: microphthalmia-associated transcription factor (MITF) gene expression; test: MITF gene expression, transcriptome analysis of treated EpiDermFT tissues; type: cell-based; settings: EpiDermFT tissue, 3 μl of 100 μg/ml solution, 24 hours
Protocol: EpiDermFT tissues were obtained from MatTek and equilibrated overnight in the cell culture incubator. […] All stock solutions were prepared at 20 mg/ml in DMSO and further dilutions were made in sterile distilled water. The proposed dosage used was based on cytotoxicity data. Water was used as the negative control. The treated tissue samples were incubated for a period of 24 hours following which RNA was extracted and prepared for transcriptome analysis for assessing the impact, if any, on the gene expression of microphthalmia-associated transcription factor (MITF). Sequencing data were generated by Azenta Life Sciences (HiSeq 2×150 bp). Analyses were performed using raw FastQ files provided by Azenta.

[6] = biological target: Thioredoxin reductase 1 (Homo sapiens (Human), UniProt Q16881); test: Thioredoxin reductase 1 (TrxR1) inhibitory activity; type: biochemical; settings: average of two readings; 1 hour incubation at room temperature
Chain of Thioredoxin reductase 1 (Q16881 151-649): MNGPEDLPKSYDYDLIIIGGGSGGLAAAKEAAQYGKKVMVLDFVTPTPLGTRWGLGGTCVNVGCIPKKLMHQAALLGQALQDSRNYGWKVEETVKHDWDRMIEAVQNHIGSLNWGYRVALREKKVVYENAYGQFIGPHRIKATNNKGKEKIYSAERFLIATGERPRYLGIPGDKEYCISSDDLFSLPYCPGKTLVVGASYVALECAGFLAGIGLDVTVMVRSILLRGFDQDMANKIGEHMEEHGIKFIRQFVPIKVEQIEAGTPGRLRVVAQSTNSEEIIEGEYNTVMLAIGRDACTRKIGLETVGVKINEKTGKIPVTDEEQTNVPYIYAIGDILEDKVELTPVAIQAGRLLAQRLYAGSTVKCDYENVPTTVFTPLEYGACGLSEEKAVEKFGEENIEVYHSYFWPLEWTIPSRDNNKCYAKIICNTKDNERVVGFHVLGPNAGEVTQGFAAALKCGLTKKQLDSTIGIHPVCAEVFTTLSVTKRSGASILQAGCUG
Protocol: Thioredoxin is known to influence melanogenesis substrates [Y Lu et al., Modulating skin colour: role of thioredoxin and glutathione systems in regulating melanogenesis, Bioscience Reports, 2021; 41 BSR20210427]. […] Test materials were prepared by dissolving 0.01 gm of each test material in 1 ml ethanol to make stock solutions. […] The plate was read at 412 nm for 30 minutes to determine the inhibition.

O=c1cc(CO)occ1O [Kojic acid, kojic acid]
Tyrosinase enzyme activity (% of control), positive control ([1]; 200 μM): *Kojic acid (200 μM) was used as a positive control: Tyrosinase enzyme activity was found to be 39% of control (p = 0.00) confirming the validation of the protocol.

CCCC(=O)NCCCCC(NC(=O)CCC)C(=O)[O-].CCCC(=O)NCCCCC(NC(=O)CCC)C(=O)[O-].[Ca+2] (centres unmarked) [CDBL, calcium di-(di-n-butyryl lysinate)]
Comments (MITF gene expression by PCR) [2]: No Effect
Tyrosinase enzyme activity (% of Control) ([1]; 10 μg/ml): 85 (p = 0.10) % of Control
Tyrosinase enzyme activity (% of Control) ([1]; 50 μg/ml): 89 (p = 0.13) % of Control
Tyrosinase enzyme activity (% of Control) ([1]; 200 μg/ml): 99 (p = 0.86) % of Control
Inhibition of tyrosinase activity (in words) [1]: ineffective
% Melanin Inhibition ([3]; three days): 0%
Melanin-inhibitory activity (in words) [3]: no significant effect
IC50 value, NADPH Oxidase (NOX-4) [4]: 240 µg/mL
Fold change/mean FPKM = 2.2 (MITF gene expression) [5]: 0.41
MITF gene expression effect (in words) ([5]; listed as Ca di-(di-n-butyryl lysinate) (CDBL)): No effect
MITF gene expression effect (in words) ([5]; listed as Ca di-n-butyryl lysinate): not significantly altered
IC50 value, Thioredoxin Reductase 1 [6]: 4.53 µg/mL

NCCCC[C@H](N)C(=O)O [Lysine (LYS), Lysine]
Fold change/mean FPKM = 2.2 (MITF gene expression) [5]: 0.38
MITF gene expression effect (in words) [5]: No effect
MITF gene expression effect (in words) ([5]; listed as lysine): not significantly altered

NCCCC[C@H](N)C(=O)[O-].NCCCC[C@H](N)C(=O)[O-].[Zn+2] [Zn lysinate (ZLY), Zn lysinate]
Comments (MITF gene expression by PCR) [2]: No Effect
Tyrosinase enzyme activity (% of Control) ([1]; 10 μg/ml): 80 (p = 0.02) % of Control
Tyrosinase enzyme activity (% of Control) ([1]; 50 μg/ml): 90 (p = 0.95) % of Control
Tyrosinase enzyme activity (% of Control) ([1]; 200 μg/ml): 90 (p = 0.23) % of Control
Inhibition of tyrosinase activity (in words) [1]: ineffective
% Melanin Inhibition ([3]; three days): 0%
Melanin-inhibitory activity (in words) [3]: no significant effect
Fold change/mean FPKM = 2.2 (MITF gene expression) [5]: 0.17
MITF gene expression effect (in words) [5]: No effect
MITF gene expression effect (in words) ([5]; listed as Zn lysinate): not significantly altered

CCCCCCc1ccc(O)cc1O [Hexylresorcinol]
Melanin inhibition, positive control ([3]; 5 μg/ml, three days): *Hexylresorcinol (5 μg/ml) was used as a positive control: Melanin inhibition was found fo be 17% of control (p = 0.007) confirming the validation of the protocol.

CCCC(=O)[O-].[Na+] [Na butyrate]
IC50 value, NADPH Oxidase (NOX-4) [4]: 170 µg/mL

NCCCC[C@H](N)C(=O)[O-].NCCCC[C@H](N)C(=O)[O-].[Ca+2] [Ca lysinate (CLY), Ca lysinate]
Comments (MITF gene expression by PCR) [2]: No Effect
Fold change/mean FPKM = 2.2 (MITF gene expression) [5]: −0.21
MITF gene expression effect (in words) [5]: No effect
MITF gene expression effect (in words) ([5]; listed as Ca lysinate): not significantly altered
